Results taken from ChEMBL document CHEMBL1201862, “PubChem BioAssay data set” (2004).
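Step 1: Grow cells in 96-well plates. Step 2: Expose to compound for 48 hours at 5 concentrations. Step 3: Interpolate endpoints linearly; if unreached, use highest concentration. The concentration for 50% growth inhibition is given as GI50.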 Calls of active or inactive are those of the source. Cut-off read from the data, not from the text of the source: active = GI50 up to about 1.1 µM and inactive = higher.

Assays:
Assay in all cases: NCI anticancer screen, dose series, 48 h
[1] = tested on: SK-OV-3
[2] = tested on: COLO 205
[3] = tested on: NCI/ADR-RES
[4] = tested on: UACC-62
[5] = tested on: SN12C
[6] = tested on: HCT-15
[7] = tested on: T47D
[8] = tested on: SK-MEL-5
[9] = tested on: RXF 393
[10] = tested on: SW-620
[11] = tested on: OVCAR-5
[12] = tested on: MCF7
[13] = tested on: NCI-H23
[14] = tested on: A549
[15] = tested on: M14
[16] = tested on: HOP-92
[17] = tested on: NCI-H226
[18] = tested on: MOLT-4
[19] = tested on: OVCAR-4
[20] = tested on: KM12
[21] = tested on: 786-0
[22] = tested on: ACHN
[23] = tested on: IGROV-1
[24] = tested on: UACC-257
[25] = tested on: SF-295
[26] = tested on: PC-3
[27] = tested on: MDA-MB-435
[28] = tested on: K562
[29] = tested on: HL-60
[30] = tested on: HOP-62
[31] = tested on: SK-MEL-2
[32] = tested on: DU-145
[33] = tested on: SF-268
[34] = tested on: U-251
[35] = tested on: SF-539
[36] = tested on: SK-MEL-28
[37] = tested on: LOX IMVI
[38] = tested on: Malme-3M
[39] = tested on: MDA-N
[40] = tested on: CAKI-1
[41] = tested on: A498
[42] = tested on: TK-10
[43] = tested on: OVCAR-8
[44] = tested on: HCT-116
[45] = tested on: Hs-578T
[46] = tested on: EKVX
[47] = tested on: HT-29
[48] = tested on: BT-549
[49] = tested on: SNB-19
[50] = tested on: OVCAR-3
[51] = tested on: NCI-H522
[52] = tested on: MDA-MB-231
[53] = tested on: RPMI-8226
[54] = tested on: SR
[55] = tested on: UO-31
[56] = tested on: SNB-75
[57] = tested on: NCI-H460
[58] = tested on: HCC 2998
[59] = tested on: CCRF-CEM

Measured: GI50

O=C1C[S+]([O-])C23c4cc5ccccc5n4CCC2CCCN13 (stereo unspecified)
> 100 µM: [6]
inactive: [1] > 100 µM | [2] > 100 µM | [3] > 100 µM | [4] > 100 µM | [5] > 100 µM | [7] > 100 µM | [8] > 100 µM | [9] > 100 µM | [10] > 100 µM | [11] > 100 µM | [12] > 100 µM | [13] > 100 µM | [14] > 100 µM | [15] > 100 µM | [16] > 100 µM | [17] > 100 µM | [18] > 100 µM | [19] > 100 µM | [20] > 100 µM | [21] > 100 µM | [22] > 100 µM | [23] > 100 µM | [24] > 100 µM | [25] > 100 µM | [26] > 100 µM | [27] > 100 µM | [28] > 100 µM | [29] > 100 µM | [30] > 100 µM | [31] > 100 µM | [32] > 100 µM | [33] > 100 µM | [34] > 100 µM | [35] > 100 µM | [36] > 100 µM | [37] > 100 µM | [38] > 100 µM | [39] > 100 µM | [40] > 100 µM | [41] > 100 µM | [42] > 100 µM | [43] > 100 µM | [44] > 100 µM | [45] > 100 µM | [46] > 100 µM | [47] > 100 µM | [48] > 100 µM | [49] > 100 µM | [50] > 100 µM | [51] > 100 µM | [52] > 100 µM | [53] > 100 µM | [54] > 100 µM

CC1CN(CCO)CCN1c1ccccc1 (stereo unspecified)
inactive: [1] > 100 µM | [2] > 100 µM | [3] > 100 µM | [4] > 100 µM | [5] > 100 µM | [7] > 100 µM | [8] > 100 µM | [9] > 100 µM | [10] > 100 µM | [11] > 100 µM | [12] > 100 µM | [13] > 100 µM | [14] > 100 µM | [15] > 100 µM | [16] > 100 µM | [17] > 100 µM | [55] > 100 µM | [18] 1.41 µM | [19] > 100 µM | [20] > 100 µM | [21] > 100 µM | [22] > 100 µM | [23] > 100 µM | [24] > 100 µM | [25] > 100 µM | [26] > 100 µM | [27] > 100 µM | [28] > 100 µM | [29] 42 µM | [30] > 100 µM | [31] > 100 µM | [32] > 100 µM | [33] > 100 µM | [34] > 100 µM | [35] > 100 µM | [36] > 100 µM | [37] > 100 µM | [38] > 100 µM | [39] > 100 µM | [40] > 100 µM | [41] > 100 µM | [42] > 100 µM | [43] > 100 µM | [44] > 100 µM | [45] > 100 µM | [46] > 100 µM | [47] > 100 µM | [48] > 100 µM | [49] > 100 µM | [56] > 100 µM | [50] > 100 µM | [57] > 100 µM | [51] > 100 µM | [52] > 100 µM | [53] > 100 µM | [54] > 100 µM
> 100 µM: [6]

COC(=O)/N=[N+](\[O-])C(c1ccccc1)c1ccccc1
inactive: [1] > 100 µM | [2] 76.2 µM | [3] 40.1 µM | [4] 51.6 µM | [5] > 100 µM | [7] 40.2 µM | [8] 41.9 µM | [9] 63.8 µM | [10] > 100 µM | [11] > 100 µM | [12] > 100 µM | [13] 29.1 µM | [14] 33.2 µM | [15] 31.8 µM | [17] 38.6 µM | [55] 13.4 µM | [18] > 100 µM | [19] 34.8 µM | [20] > 100 µM | [21] > 100 µM | [23] 61.8 µM | [24] 28.4 µM | [58] > 100 µM | [26] 60.4 µM | [27] 31 µM | [28] 47.8 µM | [29] > 100 µM | [31] 43.2 µM | [32] 42.6 µM | [33] > 100 µM | [34] > 100 µM | [35] > 100 µM | [36] > 100 µM | [37] 69 µM | [38] 27.1 µM | [39] 59.2 µM | [59] 82 µM | [40] 76.6 µM | [41] > 100 µM | [42] > 100 µM | [43] > 100 µM | [44] > 100 µM | [45] > 100 µM | [46] 27.6 µM | [47] > 100 µM | [48] > 100 µM | [49] > 100 µM | [56] 82.4 µM | [50] 98.9 µM | [57] > 100 µM | [51] > 100 µM | [52] > 100 µM | [53] 38.5 µM | [54] > 100 µM
89.7 µM: [6]
